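These data come from cells grown in 96-well plates and exposed to compound for 48 hours at five concentrations. The concentration for 50% growth inhibition is given as GI50.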 Calls of active or inactive are those of the source. No stated cut-off is given here; in the data, active = GI50 up to about 1.1 µM and inactive = higher.
Tests used:
Assay in all cases: NCI tumour cell line growth inhibition, 48 h
RPMI-8226 = tested on: RPMI-8226
LOX IMVI = tested on: LOX IMVI
A549 = tested on: A549
OVCAR-3 = tested on: OVCAR-3
ACHN = tested on: ACHN
T47D = tested on: T47D
SK-OV-3 = tested on: SK-OV-3
NCI-H23 = tested on: NCI-H23
SK-MEL-5 = tested on: SK-MEL-5
HOP-62 = tested on: HOP-62
MCF7 = tested on: MCF7
A498 = tested on: A498
786-0 = tested on: 786-0
HCC 2998 = tested on: HCC 2998
HCT-15 = tested on: HCT-15
SK-MEL-2 = tested on: SK-MEL-2
OVCAR-8 = tested on: OVCAR-8
OVCAR-4 = tested on: OVCAR-4
CCRF-CEM = tested on: CCRF-CEM
CAKI-1 = tested on: CAKI-1

Compound | GI50 (RPMI-8226) | GI50 (LOX IMVI) | GI50 (A549) | GI50 (OVCAR-3) | GI50 (ACHN) | GI50 (T47D) | GI50 (SK-OV-3) | GI50 (NCI-H23) | GI50 (SK-MEL-5) | GI50 (HOP-62) | GI50 (MCF7) | GI50 (A498) | GI50 (786-0) | GI50 (HCC 2998) | GI50 (HCT-15) [µM] | GI50 (SK-MEL-2) | GI50 (OVCAR-8) | GI50 (OVCAR-4) | GI50 (CCRF-CEM) | GI50 (CAKI-1)
OC1C[C@H](c2ccccc2)C2(C(O)c3ccccc3C2O)[C@@H](c2ccccc2)C1 (stereo not given in full) | 83.2 µM (inactive) | 40.2 µM (inactive) | > 100 µM (inactive) | > 100 µM (inactive) | > 100 µM (inactive) | > 100 µM (inactive) | > 100 µM (inactive) | > 100 µM (inactive) | > 100 µM (inactive) | > 100 µM (inactive) | > 100 µM (inactive) | > 100 µM (inactive) | > 100 µM (inactive) | > 100 µM (inactive) | > 100 | > 100 µM (inactive) | > 100 µM (inactive) | > 100 µM (inactive) | 99.1 µM (inactive) | > 100 µM (inactive)
CO[C@H]1O[C@@H]2CO[C@@H](c3ccccc3)O[C@H]2[C@@H]2C/C=C\CCC[C@@]12O | 17.2 µM (inactive) | 17.8 µM (inactive) | 26.9 µM (inactive) | 16.3 µM (inactive) | 17.3 µM (inactive) | 33.2 µM (inactive) | 29 µM (inactive) | 24 µM (inactive) | 17.8 µM (inactive) | 18 µM (inactive) | 19.2 µM (inactive) | 14.8 µM (inactive) | 16.7 µM (inactive) | 12.7 µM (inactive) | 24.4 | 16 µM (inactive) | 34.1 µM (inactive) | 32.8 µM (inactive) | 31 µM (inactive) | 33.4 µM (inactive)
c1cc(Sc2nc(Sc3ccncc3)nc(Sc3ccncc3)n2)ccn1 | > 100 µM (inactive) | > 100 µM (inactive) | > 100 µM (inactive) | > 100 µM (inactive) | > 100 µM (inactive) | > 100 µM (inactive) | > 100 µM (inactive) | > 100 µM (inactive) | > 100 µM (inactive) | > 100 µM (inactive) | > 100 µM (inactive) | > 100 µM (inactive) | > 100 µM (inactive) | > 100 µM (inactive) | > 100 | > 100 µM (inactive) | > 100 µM (inactive) | > 100 µM (inactive) | > 100 µM (inactive) | > 100 µM (inactive)
Br[Se]c1ccccn1 | 23.8 µM (inactive) | 18.7 µM (inactive) | 21.6 µM (inactive) | 15.5 µM (inactive) | 16.3 µM (inactive) | 21.8 µM (inactive) | 20.5 µM (inactive) | 20.7 µM (inactive) | 15.6 µM (inactive) | 2.48 µM (inactive) | 17.7 µM (inactive) | 17.9 µM (inactive) | 18.2 µM (inactive) | 21.1 µM (inactive) | 19 | 16.4 µM (inactive) | 19.6 µM (inactive) | 16.9 µM (inactive) | 27.6 µM (inactive) | 18.7 µM (inactive)
COc1cc([C@@H]2c3cc4c(cc3[C@H](OC3OC5COC(C(C)C)OC5C(O)C3O)C3COC(=O)[C@@H]32)OCO4)cc(OC)c1OC (stereo not given in full) | 5.71 µM (inactive) | 3.01 µM (inactive) | 3.96 µM (inactive) | 2.62 µM (inactive) | 4.79 µM (inactive) | 12.7 µM (inactive) | 6.32 µM (inactive) | 4.55 µM (inactive) | 5.55 µM (inactive) | 7.24 µM (inactive) | 3.38 µM (inactive) | 2.89 µM (inactive) | 2.58 µM (inactive) | 5.16 µM (inactive) | 4.49 | 8.36 µM (inactive) | 4.13 µM (inactive) | 16.6 µM (inactive) | 3.49 µM (inactive) | 4.15 µM (inactive)
O=C1N(CN2CCOCC2)CN(CN2CCOCC2)C(=O)N1Cc1ccccc1 | 26.5 µM (inactive) | 15.5 µM (inactive) | 40.4 µM (inactive) | 23.9 µM (inactive) | 32.5 µM (inactive) | 30.3 µM (inactive) | > 100 µM (inactive) | 17.9 µM (inactive) | 19.4 µM (inactive) | 35.4 µM (inactive) | 29.4 µM (inactive) | > 100 µM (inactive) | 26.6 µM (inactive) | 30.9 µM (inactive) | 27.6 | 16.3 µM (inactive) | 19.2 µM (inactive) | 42.7 µM (inactive) | 28.7 µM (inactive) | 29.2 µM (inactive)
CCCC(=O)Nc1cc(C(=O)N2C[C@H]3C[C@@]34C2=CC(=O)c2[nH]cc(C)c24)n(COC)c1 | 0.71 µM (active) | 0.12 µM (active) | 1.51 µM (inactive) | 0.0853 µM (active) | 0.197 µM (active) | 0.109 µM (active) | 1.29 µM (inactive) | 0.0743 µM (active) | 0.0792 µM (active) | 0.728 µM (active) | 0.0303 µM (active) | 0.741 µM (active) | 0.149 µM (active) | 0.122 µM (active) | 1.31 | 0.293 µM (active) | 0.0973 µM (active) | 0.783 µM (active) | 0.014 µM (active) | 0.215 µM (active)
CC[C@]1(Cc2ccc(OC)c(OC)c2)C=[N+]([O-])O[C@H](OCc2ccccc2)[C@@H]1OC(C)=O | 18.2 µM (inactive) | 17.5 µM (inactive) | 36.2 µM (inactive) | 15.8 µM (inactive) | 27.6 µM (inactive) | 20 µM (inactive) | 48.9 µM (inactive) | 34.9 µM (inactive) | 27.9 µM (inactive) | 34.2 µM (inactive) | 29.7 µM (inactive) | 32.7 µM (inactive) | 36.2 µM (inactive) | 45.7 µM (inactive) | 29.8 | 23 µM (inactive) | 30.3 µM (inactive) | 24.1 µM (inactive) | 19.6 µM (inactive) | 24.8 µM (inactive)
COc1ccc2c3c1OC1C(OC)(OC)C=C[C@@]4(Br)[C@@H](C2)N(CC2CC2)CC[C@]314 (stereo not given in full) | > 100 µM (inactive) | 87.9 µM (inactive) | 95.7 µM (inactive) | 46.7 µM (inactive) | > 100 µM (inactive) | 97.9 µM (inactive) | > 100 µM (inactive) | 71.3 µM (inactive) | 37.6 µM (inactive) | > 100 µM (inactive) | 52.1 µM (inactive) | > 100 µM (inactive) | > 100 µM (inactive) | > 100 µM (inactive) | > 100 | 38.5 µM (inactive) | 61.4 µM (inactive) | 43.7 µM (inactive) | 86.9 µM (inactive) | 59 µM (inactive)
O[C@@H]1CCC[C@@H]2NC[C@@H](c3ccc4c(c3)OCO4)[C@H]12 | > 100 µM (inactive) | > 100 µM (inactive) | > 100 µM (inactive) | > 100 µM (inactive) | > 100 µM (inactive) | > 100 µM (inactive) | > 100 µM (inactive) | > 100 µM (inactive) | > 100 µM (inactive) | > 100 µM (inactive) | > 100 µM (inactive) | > 100 µM (inactive) | > 100 µM (inactive) | > 100 µM (inactive) | > 100 | > 100 µM (inactive) | > 100 µM (inactive) | > 100 µM (inactive) | > 100 µM (inactive) | > 100 µM (inactive)
O=C(Cn1cc(F)c(=O)[nH]c1=O)C12CC3CC(CC(C3)C1)C2 | > 100 µM (inactive) | > 100 µM (inactive) | > 100 µM (inactive) | > 100 µM (inactive) | > 100 µM (inactive) | > 100 µM (inactive) | > 100 µM (inactive) | > 100 µM (inactive) | > 100 µM (inactive) | > 100 µM (inactive) | > 100 µM (inactive) | > 100 µM (inactive) | > 100 µM (inactive) | > 100 µM (inactive) | > 100 | > 100 µM (inactive) | > 100 µM (inactive) | > 100 µM (inactive) | > 100 µM (inactive) | > 100 µM (inactive)
CN1CCN([C@H]2C[C@H]3[C@@H]4CC=C5C[C@@H](O)CC[C@]5(C)[C@H]4CC[C@]3(C)[C@H]2O)CC1 | 23.9 µM (inactive) | > 43.4 µM (inactive) | > 100 µM (inactive) | > 42.1 µM (inactive) | > 100 µM (inactive) | > 47.4 µM (inactive) | > 100 µM (inactive) | > 100 µM (inactive) | 35.5 µM (inactive) | > 51.9 µM (inactive) | > 45.6 µM (inactive) | > 100 µM (inactive) | 17.8 µM (inactive) | 44.2 µM (inactive) | > 42.3 | > 83.9 µM (inactive) | > 42.8 µM (inactive) | > 41.1 µM (inactive) | 25 µM (inactive) | > 100 µM (inactive)
CN(C)C(=O)O/N=C1/C(=C2/C(=O)Nc3ccccc32)Nc2ccccc21 | > 100 µM (inactive) | 86.3 µM (inactive) | 20.5 µM (inactive) | 8.99 µM (inactive) | 19.2 µM (inactive) | 2.76 µM (inactive) | 11.8 µM (inactive) | 28.7 µM (inactive) | 24.2 µM (inactive) | 14.1 µM (inactive) | 17 µM (inactive) | 1.5 µM (inactive) | 6.98 µM (inactive) | 38.5 µM (inactive) | 19.2 | 8.53 µM (inactive) | 9.75 µM (inactive) | 6.81 µM (inactive) | > 100 µM (inactive) | 0.883 µM (active)
O=C(CSc1nc2ccc([N+](=O)[O-])cc2s1)c1ccc2ccccc2c1 | > 100 µM (inactive) | > 100 µM (inactive) | > 100 µM (inactive) | > 100 µM (inactive) | > 100 µM (inactive) | > 100 µM (inactive) | > 100 µM (inactive) | 33 µM (inactive) | > 100 µM (inactive) | > 100 µM (inactive) | > 100 µM (inactive) | > 100 µM (inactive) | 34 µM (inactive) | > 100 µM (inactive) | > 100 | > 100 µM (inactive) | 37.4 µM (inactive) | 41.2 µM (inactive) | 84.5 µM (inactive) | > 100 µM (inactive)
